Measurements taken from US9822147B2, “Methods of treating ophthalmic diseases using NPR-B agonists” (priority 2009, dated 2017).
Numbered stars: 1 amine (or outer) side, 2 acyl side, 3 side chain; on linkers, the order of the positions; unused ones are H or OH. Square brackets hold non-standard residues; d marks the D form. Peptide text beside a SMILES is read from it. * marks the point of attachment. Phe(3,4-Cl2) = N[C@@H](Cc1ccc(Cl)c(Cl)c1)C(=O)O; X12 = CC(C)(C)CNC[C@@H](N[*:1])C(=O)[*:2]; Phe(4-Cl) = N[C@@H](Cc1ccc(Cl)cc1)C(=O)O; Phe(4-F) = N[C@@H](Cc1ccc(F)cc1)C(=O)O; Phe(4-Me) = Cc1ccc(C[C@H](N)C(=O)O)cc1; Pro(4R-NH2) = N[C@H]1CN[C@H](C(=O)O)C1; X2 = O=C([C@H]1CCCN([*:1])C1)[*:2]; dDap(Me2) = CN(C)C[C@@H](N)C(=O)O; Hyp = O=C(O)[C@@H]1C[C@@H](O)CN1; NMeF = CN[C@@H](Cc1ccccc1)C(=O)O; tBuAla = CC(C)(C)C[C@H](N)C(=O)O; NHcycloheptyl = C1CCCC(N*)CC1; NMeL = CN[C@@H](CC(C)C)C(=O)O; X6 = C[C@@H]1CCCC[C@H]1N*; Ac6c = NC1(C(=O)O)CCCCC1; Octanoyl = CCCCCCCC(=O)*; Api = NC1(C(=O)O)CCNCC1

biological target: T1, NPR-B (Homo sapiens, UniProt P20594); test: NPR-B induced production of cyclic GMP in human glaucoma trabecular meshwork cells (GTM-3); format: cell-based; settings: group by EC50 and Emax (CNP = 100%); Table 4; read-out: Activity (group), NPR-B activation assayed with GTM-3 cells
T1 construct: a functional assay using endogenously NPR-B expressing GTM-3 cells; endogenous in cells; host or cells: GTM-3 (human glaucoma trabecular meshwork cells)
T1 sequence (P20594 23-1047): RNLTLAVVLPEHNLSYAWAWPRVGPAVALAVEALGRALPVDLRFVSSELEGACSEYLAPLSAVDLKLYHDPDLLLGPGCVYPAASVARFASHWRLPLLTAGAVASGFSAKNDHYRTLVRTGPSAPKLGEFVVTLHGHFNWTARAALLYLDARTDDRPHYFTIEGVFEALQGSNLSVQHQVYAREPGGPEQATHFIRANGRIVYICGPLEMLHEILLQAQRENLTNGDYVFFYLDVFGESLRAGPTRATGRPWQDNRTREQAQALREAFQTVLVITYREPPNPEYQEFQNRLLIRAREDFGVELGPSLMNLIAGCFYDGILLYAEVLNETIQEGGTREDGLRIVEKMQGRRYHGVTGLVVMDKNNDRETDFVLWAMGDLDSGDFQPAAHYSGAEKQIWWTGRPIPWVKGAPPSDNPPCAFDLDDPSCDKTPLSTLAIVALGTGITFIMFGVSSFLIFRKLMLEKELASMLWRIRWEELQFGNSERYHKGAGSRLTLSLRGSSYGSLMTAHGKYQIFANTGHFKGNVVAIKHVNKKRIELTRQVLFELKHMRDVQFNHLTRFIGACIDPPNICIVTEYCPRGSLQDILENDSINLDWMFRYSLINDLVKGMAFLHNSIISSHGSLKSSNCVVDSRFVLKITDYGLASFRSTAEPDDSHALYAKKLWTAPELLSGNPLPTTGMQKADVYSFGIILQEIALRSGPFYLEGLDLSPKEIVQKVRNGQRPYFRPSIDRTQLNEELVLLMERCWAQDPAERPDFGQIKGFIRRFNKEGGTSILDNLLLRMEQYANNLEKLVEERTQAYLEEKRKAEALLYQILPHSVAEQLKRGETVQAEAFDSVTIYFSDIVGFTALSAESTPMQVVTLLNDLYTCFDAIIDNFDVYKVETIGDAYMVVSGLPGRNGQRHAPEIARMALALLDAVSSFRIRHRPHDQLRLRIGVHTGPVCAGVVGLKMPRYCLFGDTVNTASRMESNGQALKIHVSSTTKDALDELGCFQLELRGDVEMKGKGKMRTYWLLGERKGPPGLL

| SMILES | EC50 [nM] |
| --- | --- |
| CCCCCCCC(=O)N[C@H](C)C(=O)N[C@@H](Cc1ccccc1)C(=O)N[C@H](CNCC(C)(C)C)C(=O)N[C@@H](CC(C)C)C(=O)N1C[C@H](N)C[C@H]1C(=O)N(C)[C@@H](CC(C)C)C(=O)N[C@@H](CC(=O)O)C(=O)N[C@@H](CCCNC(=N)N)C(=O)N[C@H](C(N)=O)[C@@H](C)CC [JAL-1463, Occ-ala-Phe-dap(1464)-Leu-Tap-Nml-Asp-Arg-Ile-NH2] (Octanoyl-[dA]F[X12]L[Pro(4R-NH2)][NMeL]DRI-NH2) | < 1000 |
| CCCCCCCC(=O)N1CCC[C@H](C(=O)N[C@@H](Cc2ccc(F)cc2)C(=O)N[C@H](CC(C)C)C(=O)N[C@@H](CC(C)C)C(=O)N2C[C@H](O)C[C@H]2C(=O)N(C)[C@@H](CC(C)C)C(=O)N[C@@H](CC(=O)O)C(=O)N[C@@H](CCCNC(=N)N)C(=O)N[C@H](C(N)=O)[C@@H](C)CC)C1 [JAL-1487, Occ-Sni-Pff-leu-Leu-Hyp-Nml-Asp-Arg-Ile-NH2] (Octanoyl-[X2][Phe(4-F)][dL]L[Hyp][NMeL]DRI-NH2) | < 1000 |
| CCCCCCCC(=O)N1CCC[C@H](C(=O)N[C@@H](Cc2ccc(Cl)cc2)C(=O)N[C@H](CC(C)C)C(=O)N[C@@H](CC(C)C)C(=O)N2C[C@H](O)C[C@H]2C(=O)N(C)[C@@H](CC(C)C)C(=O)N[C@@H](CC(=O)O)C(=O)N[C@@H](CCCNC(=N)N)C(=O)N[C@H](C(N)=O)[C@@H](C)CC)C1 [JAL-1493, Occ-Sni-Pcf-leu-Leu-Hyp-Nml-Asp-Arg-Ile-NH2] (Octanoyl-[X2][Phe(4-Cl)][dL]L[Hyp][NMeL]DRI-NH2) | < 1000 |
| CCCCCCCC(=O)N1CCC[C@H](C(=O)N[C@@H](Cc2ccc(C)cc2)C(=O)N[C@H](CC(C)C)C(=O)N[C@@H](CC(C)C)C(=O)N2C[C@H](O)C[C@H]2C(=O)N(C)[C@@H](CC(C)C)C(=O)N[C@@H](CC(=O)O)C(=O)N[C@@H](CCCNC(=N)N)C(=O)N[C@H](C(N)=O)[C@@H](C)CC)C1 [JAL-1494, Occ-Sni-Pmf-leu-Leu-Hyp-Nml-Asp-Arg-Ile-NH2] (Octanoyl-[X2][Phe(4-Me)][dL]L[Hyp][NMeL]DRI-NH2) | < 1000 |
| CCCCCCCC(=O)N1CCC[C@H](C(=O)N[C@@H](Cc2ccc(Cl)c(Cl)c2)C(=O)N[C@H](CC(C)C)C(=O)N[C@@H](CC(C)C)C(=O)N2C[C@H](O)C[C@H]2C(=O)N(C)[C@@H](CC(C)C)C(=O)N[C@@H](CC(=O)O)C(=O)N[C@@H](CCCNC(=N)N)C(=O)N[C@H](C(N)=O)[C@@H](C)CC)C1 [JAL-1496, Occ-Sni-Eaa-leu-Leu-Hyp-Nml-Asp-Arg-Ile-NH2] (Octanoyl-[X2][Phe(3,4-Cl2)][dL]L[Hyp][NMeL]DRI-NH2) | < 1000 |
| CCCCCCCC(=O)N[C@H](C)C(=O)N[C@@H](Cc1ccccc1)C(=O)N[C@H](CC(C)C)C(=O)N[C@@H](CC(C)C)C(=O)N1C[C@H](O)C[C@H]1C(=O)N(C)[C@@H](CC(C)C)C(=O)N[C@H](C(=O)N[C@@H](CCCNC(=N)N)C(=O)N[C@H](C(N)=O)[C@@H](C)CC)C1CCCC1 [JAL-1556, Occ-ala-Phe-leu-Leu-Hyp-Nml-(BB725)-Arg-Ile-NH2] (HELM PEPTIDE1{[CCCCCCCC(=O)[*:2]].[dA].F.[dL].L.[Hyp].[meL].[O=C([C@@H](N[*:1])C1CCCC1)[*:2]].R.I.[am]}$$$$V2.0) | < 1000 |
| CCCCCCCC(=O)N1CCC[C@H](C(=O)N[C@@H](Cc2ccccc2)C(=O)N[C@H](CC(C)C)C(=O)N[C@@H](CC(C)C)C(=O)N2C[C@H](O)C[C@H]2C(=O)N(C)[C@@H](CC(C)C)C(=O)N[C@@H](CC(=O)O)C(=O)N[C@@H](CCCNC(=N)N)C(=O)N(C)[C@H](C(N)=O)[C@@H](C)CC)C1 [JAL-1569, Occ-Sni-Phe-leu-Leu-Hyp-Nml-Asp-Arg-Nmi-NH2] (HELM PEPTIDE1{[CCCCCCCC(=O)[*:2]].[O=C([C@H]1CCCN([*:1])C1)[*:2]].F.[dL].L.[Hyp].[meL].D.R.[meI].[am]}$$$$V2.0) | < 1000 |
| CCCCCCCC(=O)N1CCC[C@H](C(=O)N(C)[C@@H](Cc2ccccc2)C(=O)N[C@H](CC(C)C)C(=O)N[C@@H](CC(C)C)C(=O)N2C[C@H](O)C[C@H]2C(=O)N(C)[C@@H](CC(C)C)C(=O)N[C@@H](CC(=O)O)C(=O)N[C@@H](CCCNC(=N)N)C(=O)N[C@H](C(N)=O)[C@@H](C)CC)C1 [JAL-1573, Occ-Sni-Nmf-leu-Leu-Hyp-Nml-Asp-Arg-Ile-NH2] (HELM PEPTIDE1{[CCCCCCCC(=O)[*:2]].[O=C([C@H]1CCCN([*:1])C1)[*:2]].[meF].[dL].L.[Hyp].[meL].D.R.I.[am]}$$$$V2.0) | < 1000 |

More lines, now with the values ahead:

| EC50 [nM] | SMILES |
| --- | --- |
| < 1000 | CCCCCCCC(=O)N[C@H](C)C(=O)N[C@@H](Cc1ccccc1)C(=O)NC1(C(=O)N[C@@H](CC(C)C)C(=O)N2C[C@H](N)C[C@H]2C(=O)N(C)[C@@H](CC(C)C)C(=O)N[C@@H](CC(=O)O)C(=O)N[C@@H](CCCNC(=N)N)C(=O)N[C@H](C(N)=O)[C@@H](C)CC)CCCCC1 [JAL-1454, Occ-ala-Phe-Egz-Leu-Tap-Nml-Asp-Arg-Ile-NH2] (Octanoyl-[dA]F[Ac6c]L[Pro(4R-NH2)][NMeL]DRI-NH2) |
| < 1000 | CCCCCCCC(=O)N1CCC[C@H](C(=O)N[C@@H](Cc2ccccc2)C(=O)N[C@H](CC(C)C)C(=O)N[C@@H](CC(C)C)C(=O)N2C[C@H](O)C[C@H]2C(=O)N(C)[C@@H](CC(C)C)C(=O)N[C@@H](CC(=O)O)C(=O)N2CCC[C@H]2C(=O)N[C@@H]2CCCC[C@H]2C)C1 [JAL-1510, Occ-Sni-Phe-leu-Leu-Hyp-Nml-Asp-Pro-1860] (Octanoyl-[X2]F[dL]L[Hyp][NMeL]DP-X6) |
| < 1000 | CCCCCCCC(=O)N1CCC[C@H](C(=O)N[C@@H](Cc2ccccc2)C(=O)N[C@H](CC(C)C)C(=O)N[C@@H](CC(C)C)C(=O)N2C[C@H](N)C[C@H]2C(=O)N(C)[C@@H](CC(C)C)C(=O)N[C@@H](CC(=O)O)C(=O)N2CCC[C@H]2C(=O)N[C@H](C(N)=O)[C@@H](C)CC)C1 [JAL-1559, Occ-Sni-Phe-leu-Leu-Tap-Nml-Asp-Pro-Ile-NH2] (Octanoyl-[X2]F[dL]L[Pro(4R-NH2)][NMeL]DPI-NH2) |
| < 1000 | CCCCCCCC(=O)N1CCC[C@H](C(=O)N[C@@H](Cc2ccccc2)C(=O)NC2(C(=O)N[C@@H](CC(C)C)C(=O)N3C[C@H](N)C[C@H]3C(=O)N(C)[C@@H](CC(C)C)C(=O)N[C@@H](CC(=O)O)C(=O)N3CCC[C@H]3C(=O)N[C@H](C(N)=O)[C@@H](C)CC)CCNCC2)C1 [JAL-1561, Occ-Sni-Phe-Apc-Leu-Tap-Nml-Asp-Pro-Ile-NH2] (Octanoyl-[X2]F[Api]L[Pro(4R-NH2)][NMeL]DPI-NH2) |
| < 1000 | CCCCCCCC(=O)N1CCC[C@H](C(=O)N[C@@H](Cc2ccccc2)C(=O)N[C@H](CC(C)C)C(=O)N[C@@H](CC(C)C)C(=O)N2C[C@H](O)C[C@H]2C(=O)N[C@@H](CC(C)(C)C)C(=O)N[C@@H](CC(=O)O)C(=O)N2CCC[C@H]2C(=O)NC2CCCCCC2)C1 [JAL-1595, Occ-Sni-Phe-leu-Leu-Hyp-Npg-Asp-Pro-Che] (Octanoyl-[X2]F[dL]L[Hyp][tBuAla]DP-NHcycloheptyl) |
| < 1000 | CCCCCCCC(=O)N1CCC[C@H](C(=O)N(C)[C@@H](Cc2ccccc2)C(=O)N[C@H](CC(C)C)C(=O)N[C@@H](CC(C)C)C(=O)N2C[C@H](O)C[C@H]2C(=O)N(C)[C@@H](CC(C)C)C(=O)N[C@@H](CC(=O)O)C(=O)N2CCC[C@H]2C(=O)NC2CCCCCC2)C1 [JAL-1597, Occ-Sni-Nmf-leu-Leu-Hyp-Nml-Asp-Pro-Che] (Octanoyl-[X2][NMeF][dL]L[Hyp][NMeL]DP-NHcycloheptyl) |
| < 1000 | CCCCCCCC(=O)N1CCC[C@H](C(=O)N[C@@H](Cc2ccc(Cl)c(Cl)c2)C(=O)N[C@H](CC(C)C)C(=O)N[C@@H](CC(C)C)C(=O)N2C[C@H](O)C[C@H]2C(=O)N(C)[C@@H](CC(C)C)C(=O)N[C@@H](CC(=O)O)C(=O)N2CCC[C@H]2C(=O)NC2CCCCCC2)C1 [JAL-1599, Occ-Sni-Eaa-leu-Leu-Hyp-Nml-Asp-Pro-Che] (Octanoyl-[X2][Phe(3,4-Cl2)][dL]L[Hyp][NMeL]DP-NHcycloheptyl) |
| < 1000 | CCCCCCCC(=O)N1CCC[C@H](C(=O)N[C@@H](Cc2ccccc2)C(=O)NC2(C(=O)N[C@@H](CC(C)C)C(=O)N3C[C@H](N)C[C@H]3C(=O)N(C)[C@@H](CC(C)C)C(=O)N[C@@H](CC(=O)O)C(=O)N3CCC[C@H]3C(=O)NC3CCCCCC3)CCNCC2)C1 [JAL-1602, Occ-Sni-Phe-Apc-Leu-Tap-Nml-Asp-Pro-Che] (Octanoyl-[X2]F[Api]L[Pro(4R-NH2)][NMeL]DP-NHcycloheptyl) |
| < 1000 | CCCCCCCC(=O)N1CCC[C@H](C(=O)N[C@@H](Cc2ccccc2)C(=O)N[C@H](CN(C)C)C(=O)N[C@@H](CC(C)C)C(=O)N2C[C@H](N)C[C@H]2C(=O)N(C)[C@@H](CC(C)C)C(=O)N[C@@H](CC(=O)O)C(=O)N2CCC[C@H]2C(=O)NC2CCCCCC2)C1 [JAL-1603, Occ-Sni-Phe-dap(Me2)-Leu-Tap-Nml-Asp-Pro-Che] (Octanoyl-[X2]F[dDap(Me2)]L[Pro(4R-NH2)][NMeL]DP-NHcycloheptyl) |
